Measured values: patent publication US20210032253A1, “PYRAZOLO[1,5-A][1,3,5]TRIAZINE-2-AMINE DERIVATIVE, PREPARATION METHOD THEREFOR AND MEDICAL USE THEREOF” (JIANGSU HENGRUI MEDICINE CO., LTD., priority 2018, published 2021)

Assays:
Assay type in all cases: cell-based
[1] = biological target: T1, adenosine A2a receptor (A2aR) (Homo sapiens, UniProt P29274); test: Inhibition of adenosine A2a receptor cAMP signaling pathway in CHO-K1/A2aR cells (HTRF cAMP dynamic 2 kit); settings: Table 1, 20 nM ethylcarbazole
T1 construct: expressed in transfected cells; host or cells: CHO-K1
T1 sequence (P29274 whole entry): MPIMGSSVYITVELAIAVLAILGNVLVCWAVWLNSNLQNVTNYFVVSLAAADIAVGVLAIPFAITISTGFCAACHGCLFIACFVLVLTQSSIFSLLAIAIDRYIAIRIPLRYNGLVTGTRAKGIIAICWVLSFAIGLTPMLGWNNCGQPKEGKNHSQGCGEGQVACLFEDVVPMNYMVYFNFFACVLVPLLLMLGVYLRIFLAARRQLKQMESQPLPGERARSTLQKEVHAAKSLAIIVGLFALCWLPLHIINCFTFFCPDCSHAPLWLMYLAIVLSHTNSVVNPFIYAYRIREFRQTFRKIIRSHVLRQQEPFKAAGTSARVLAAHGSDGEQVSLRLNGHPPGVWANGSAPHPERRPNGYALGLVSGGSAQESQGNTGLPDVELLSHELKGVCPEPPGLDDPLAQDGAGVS
Source text: (§1) Test Example 1. Determination of the inhibitory activities of the compounds of the present disclosure on the adenosine A2a receptor (A2aR) cAMP signaling pathway, the adenosine A1 receptor (A1R) cAMP signaling pathway and the adenosine A3 receptor (A3R) cAMP signaling pathway.
(§2) The inhibitory activities of the compounds of the present disclosure on the adenosine A2a receptor (A2aR) cAMP signaling pathway, the adenosine A1 receptor cAMP signaling pathway and the adenosine A3 receptor cAMP signaling pathway were determined by the following methods. The experimental method is briefly described as follows:
CHO-K1/A2aR cells were cultured in DMEM/F12 medium containing 10% fetal bovine serum and 800 μg/mL Zeocin™. The cells were digested with the cell dissociation buffer during the experiment. The cells were resuspended in the HBSS buffer containing 20 mM HEPES and 0.1% bovine serum albumin and counted, and the cell density was adjusted to 10^6 cells/mL. In 384-well plates, each well was added with 5 μL of the cell suspension, and 2.5 µL of test compounds (4× concentration) formulated with the HBSS buffer containing 20 mM HEPES, 0.1% bovine serum albumin, 54 μM rolipram and 2.7 U/mL adenosine deaminase, and the plates were incubated at room temperature for 30 minutes. Each well was then added with 2.5 μL of ethylcarbazole (4× concentration) formulated with the balanced salt buffer containing 20 mM HEPES, 0.1% bovine serum albumin, 54 μM rolipram and 2.7 U/mL adenosine deaminase, and the plates were incubated at room temperature for 30 minutes. The final concentrations of the compounds were: 10000, 2000, 400, 80, 16, 3.2, 0.64, 0.128, 0.0256, 0.00512, and 0.001024 nM. The final concentration of ethylcarbazole was 20 nM. Intracellular cAMP concentration was determined with cAMP dynamic 2 kits. cAMP-d2 and Anti-cAMP—Eu-Cryptate were diluted respectively with the cAMP lysis buffer at a ratio of 1:4. Each well was added with 5 μL of the diluted cAMP-d2, followed by addition of 5 μL of the diluted Anti-cAMP—Eu-Cryptate, and the plates were incubated at room temperature in the dark for 1 hour. The HTRF signal values were read by the PHERAstar multi-function microplate reader.

[2] = biological target: T2, adenosine A1 receptor (A1R) (Homo sapiens, UniProt P30542); test: Inhibition of adenosine A1 receptor cAMP signaling pathway in CHO-K1/A1R cells (HTRF cAMP dynamic 2 kit); settings: Table 2; for IC50: CHO-K1/A1R cells, cAMP, 10 μM forskolin, 10 nM CPA; for IC50 ratio (A1R/A2aR): selectivity A1R over A2aR
T2 construct: expressed in transfected cells; host or cells: CHO-K1
T2 sequence (P30542 1-326): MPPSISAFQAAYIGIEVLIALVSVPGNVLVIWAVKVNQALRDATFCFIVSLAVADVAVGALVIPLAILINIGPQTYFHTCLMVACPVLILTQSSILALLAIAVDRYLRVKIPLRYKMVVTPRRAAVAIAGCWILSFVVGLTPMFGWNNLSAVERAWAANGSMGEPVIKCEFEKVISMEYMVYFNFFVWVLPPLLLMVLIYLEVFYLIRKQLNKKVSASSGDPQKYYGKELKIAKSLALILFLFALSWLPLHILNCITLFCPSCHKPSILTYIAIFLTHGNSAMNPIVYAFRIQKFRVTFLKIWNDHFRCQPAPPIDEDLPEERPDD
Source text: as §1, §2
CHO-K1/A1R cells were cultured in DMEMIF12 medium containing 10% fetal bovine serum and 1 mg/mL G418. The cells were digested with the cell dissociation buffer during the experiment. The cells were then resuspended in the HBSS buffer containing 20 mM HEPES and 0.1% bovine serum albumin and counted, and the cell density was adjusted to 5×10^5 cells/mL. In 384-well plates, each well was added with 12.5 μL of the cell suspension, and 6.25 μL of the test compounds (4× concentration) formulated with the HBSS buffer containing 20 mM HEPES, 0.1% bovine serum albumin, 54 μM rolipram and 2.7 U/mL adenosine deaminase, and the plates were incubated at room temperature for 30 minutes. Each well was then added with 6.25 μL of forskolin and N6-cyclopentyladenosine (4× concentration) formulated with the HBSS buffer containing 20 mM HEPES, 0.1% bovine serum albumin, 54 μM rolipram and 2.7 U/mL adenosine deaminase, and the plates were incubated at room temperature for 30 minutes. The final concentrations of the compounds were: 100000, 10000, 1000, 100, 10, 1, 0.1 and 0 nM. The final concentration of forskolin was 10 μM. The final concentration of CPA was 10 nM. Intracellular cAMP concentration was determined with cAMP dynamic 2 kits. cAMP-d2 and Anti-cAMP—Eu-Cryptate were diluted respectively with the cAMP lysis buffer at a ratio of 1:4. Each well was added with 12.5 μL of the diluted cAMP-d2, followed by addition of 12.5 μL of the diluted Anti-cAMP—Eu-Cryptate, and the plates were incubated at room temperature in the dark for 1 hour. The HTRF signal values were read by the PHERAstar multi-function microplate reader.

[3] = biological target: T3, adenosine A3 receptor (A3R) (Homo sapiens, UniProt P0DMS8); test: Inhibition of adenosine A3 receptor cAMP signaling pathway in CHO-K1/A3R cells (HTRF cAMP dynamic 2 kit); settings: Table 3; for IC50: CHO-K1/A3R cells, cAMP, 10 μM forskolin, 5 nM 2Cl-IB-MECA; for IC50 ratio (A3R/A2aR): selectivity A3R over A2aR
T3 construct: expressed in transfected cells; host or cells: CHO-K1
T3 sequence (P0DMS8 1-318): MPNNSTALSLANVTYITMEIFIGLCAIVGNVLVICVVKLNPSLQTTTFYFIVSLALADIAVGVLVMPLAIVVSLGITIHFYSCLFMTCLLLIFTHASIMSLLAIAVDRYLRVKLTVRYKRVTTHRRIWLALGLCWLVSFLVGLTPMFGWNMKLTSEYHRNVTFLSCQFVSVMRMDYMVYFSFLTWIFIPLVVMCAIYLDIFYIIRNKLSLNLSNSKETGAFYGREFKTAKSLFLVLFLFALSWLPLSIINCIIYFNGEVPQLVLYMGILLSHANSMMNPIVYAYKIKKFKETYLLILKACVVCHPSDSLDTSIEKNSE
Source text: as §1, §2
CHO-K1/A3R cells were cultured in DMEMIF12 medium containing 10% fetal bovine serum and 10 μg/mL puromycin. The cells were digested with the cell dissociation buffer during the experiment. The cells were resuspended in the HBSS buffer containing 20 mM HEPES and 0.1% bovine serum albumin and counted, and the cell density was adjusted to 5×10^5 cells/mL. In 384-well plates, each well was added with 12.5 μL of the cell suspension, and 6.25 μL of the test compounds (4× concentration) formulated with the HBSS buffer containing 20 mM HEPES, 0.1% bovine serum albumin, 54 μM rolipram and 2.7 U/mL adenosine deaminase, and the plates were incubated at room temperature for 30 minutes. Each well was then added with 6.25 μL of forskolin and 2Cl-IB-MECA (4× concentration) formulated with the HBSS buffer containing 20 mM HEPES, 0.1% bovine serum albumin, […] rolipram and 2.7 U/mL adenosine deaminase, and the plates were incubated at room temperature for 30 minutes. The final concentrations of the compounds were: 100000, 10000, 1000, 100, 10, 1, 0.1 and 0 nM. The final concentration of forskolin was 10 μM. The final concentration of 2Cl-IB-MECA was 5 nM. Intracellular cAMP concentration was determined with cAMP dynamic 2 kits. cAMP-d2 and Anti-cAMP—Eu-Cryptate were diluted respectively with the cAMP lysis buffer at a ratio of 1:4. Each well was added with 12.5 μL of the diluted cAMP-d2, followed by addition of 12.5 μL of the diluted Anti-cAMP—Eu-Cryptate, and the plates were incubated at room temperature in the dark for 1 hour. The HTRF signal values were read by the PHERAstar multi-function microplate reader. IC50 values for the inhibitory activities of the compounds were calculated by Graphpad Prism software, and are shown in Table 3.

Compound	IC50 [1] [nM]	IC50 [2] [nM]	IC50 ratio (A1R/A2aR) [2]	IC50 [3] [nM]	IC50 ratio (A3R/A2aR) [3]
Cc1ccc(-c2nc(N)nc3c(Cc4cccc(CN5CC6COCC6C5)n4)cnn23)o1 (stereo not drawn) [Example 9, 4-(5-Methylfuran-2-yl)-8-((6-((tetrahydro-1H-furo[3,4-c]pyrrol-5(3H)-yl)methyl)pyridin-2-yl)methyl)pyrazolo[1,5-a][1,3,5]triazin-2-amine]	1.64	483	294^	3370	>10^3
Nc1nc(-c2ccco2)n2ncc(Cc3ccccc3F)c2n1 [Example 10, 8-(2-Fluorobenzyl)-4-(furan-2-yl)pyrazolo[1,5-a][1,3,5]triazin-2-amine]	1.71	147	86^	358	209^
COCc1cccc(Cc2cnn3c(-c4ccc(C)o4)nc(N)nc23)n1 [Example 13, 8-((6-(Methoxymethyl)pyridin-2-yl)methyl)-4-(5-methylfuran-2-yl)pyrazolo[1,5-a][1,3,5]triazin-2-amine]	1.7	1230	725^	5500	>10^3
Cc1ccc(-c2nc(N)nc3c(Cc4cccc(COCCF)n4)cnn23)o1 [Example 14, 8-((6-((2-Fluoroethoxy)methyl)pyridin-2-yl)methyl)-4-(5-methylfuran-2-yl)pyrazolo[1,5-a][1,3,5]triazin-2-amine]	0.68	293	431^	1390	>10^3
Cc1ccc(-c2nc(N)nc3c(Cc4cccc(CO[C@H]5CCN(C)C5)n4)cnn23)o1 [Example 15, (S)-4-(5-Methylfuran-2-yl)-8-((6-(((1-methylpyrrolidin-3-yl)oxy)methyl)pyridin-2-yl)methyl) pyrazolo[1,5-a][1,3,5]triazin-2-amine]	1.83	165	90^	8970	>10^3
Cc1ccc(-c2nc(N)nc3c(Nc4cccc(CO[C@@H]5CCOC5)n4)cnn23)o1 [Example 21, (R)-4-(5-Methylfuran-2-yl)-N^8-(6-(((tetrahydrofuran-3-yl)oxy)methyl)pyridin-2-yl)pyrazolo[1,5-a][1,3,5]triazine-2,8-diamine]	0.4	609	>10^3	1700	>10^3
Cc1ccc(-c2nc(N)nc3c(Cc4cccc(COC5CCCC5)n4)cnn23)o1 [Example 22, 8-((6-((Cyclopentyloxy)methyl)pyridin-2-yl)methyl)-4-(5-methylfuran-2-yl)pyrazolo[1,5-a][1,3,5]triazin-2-amine]	0.57	303	532^	1050	>10^3
Cc1ccc(-c2nc(N)nc3c(Cc4cccc(CO[C@H]5CCOC5)c4)cnn23)o1 [Example 24, (S)-4-(5-Methylfuran-2-yl)-8-(3-(((tetrahydrofuran-3-yl)oxy)methyl)benzyl)pyrazolo[1,5-a][1,3,5]triazin-2-amine]	1.2	2020	>10^3	2040	>10^3
Cc1ccc(-c2nc(N)nc3c(Nc4cccc(CO[C@H]5CCOC5)c4)cnn23)o1 [Example 25, (S)-4-(5-Methylfuran-2-yl)-N^8-(3-(((tetrahydrofuran-3-yl)oxy)methyl)phenyl)pyrazolo[1,5-a][1,3,5]triazine-2,8-diamine]	1.64	2040	>10^3	8150	>10^3
Cc1ccc(-c2nc(N)nc3c(Nc4cccc(CO[C@H]5CCOC5)c4F)cnn23)o1 [Example 26, (S)—N^8-(2-fluoro-3-(((tetrahydrofuran-3-yl)oxy)methyl)phenyl)-4-(5-methylfuran-2-yl)pyrazolo[1,5-a][1,3,5]triazine-2,8-diamine]	1.66	1210	731^	5300	>10^3
Cc1ccc(-c2nc(N)nc3c(Nc4cccc(CN5CCOCC5)n4)cnn23)o1 [Example 27, 4-(5-Methylfuran-2-yl)-N^8-(6-(morpholinomethyl)pyridin-2-yl)pyrazolo[1,5-a][1,3,5]triazine-2,8-diamine]	1.9	286	150^	977	514^
Cc1ccc(-c2nc(N)nc3c(Sc4cccc(CO[C@H]5CCOC5)n4)cnn23)o1 [Example 28, (S)-4-(5-Methylfuran-2-yl)-8-((6-(((tetrahydrofuran-3-yl)oxy)methyl)pyridin-2-yl)thio)pyrazolo[1,5-a][1,3,5]triazin-2-amine]	2.13	595	279^	1150	540^
